Results as given in patent US11925649B2, “Treatments for diabetic neuropathy” (University of Manitoba, priority 2010, dated 2024).

Experiments:
[1] = tested on: STZ diabetic C57Bl6J mice; assay: Prophylactic topical hydrogel application in STZ diabetic mice; format: in vivo, mouse
Method: Male C57Bl6J mice were made diabetic with 2 injections of 90 mg/kg STZ on consecutive days, and then separated into three groups. There were also two groups control (non-diabetic) mice. The first group of control (non-diabetic) mice received daily topical treatment with 50 μl Intrasite® hydrogel (Intrasite is a registered trademark of T. J. Smith and Nephew, Hull, England) to both hind paws, with a controlled exposure time of 20 minutes. […] The third group of mice were diabetic mice that received daily topical treatment with 50 μl hydrogel to both hind paws.
Two months after the second STZ injection, the function of the small sensory neurons in all five groups of mice were determined by measuring hind paw thermal response latency following the procedure described in Example 7.
The structural integrity of small sensory neurons was assessed by measuring IENF profiles in hind paw plantar skin as described in Example 7.
A suitable gel is exemplified by Intrasite® sterile hydrogel prod. no. 66027313 (Smith & Nephew Inc, St. Laurent, PQ, CA).

[2] = tested on: PGC-1α; assay: PGC-1α expression in DRG of STZ-diabetic mice (Western blot); format: in vivo, mouse; details: daily s.c. injections for 8 weeks, lumbar DRG
Method: (§1) Lumbar DRG were isolated and rinsed in ice-cold solution containing STE buffer (250 mmol/l sucrose, 10 mmol/l Tris-HCl, 1 mmol/l EDTA, pH 7.4), and then homogenized with a polytron homogenizer ([…] GmbH, Switzerland) using 3×7.5 s grinding pulses at 30 s intervals according to the method taught by Chowdhury et al. (2010, Diabetes 59: 1082-1091).
(§2) Quantitative Western blotting was performed as previously disclosed by Chowdhury et al (2010) and Fernyhough et al. (1999, Diabetes 48: 881-889). DRG homogenates of 5-10 μg of protein were resolved on a 10% SDS-PAGE gel and electroblotted onto nitrocellulose membrane. Blots were then blocked in 5% nonfat milk containing 0.05% Tween-20, rinsed in PBS (pH 7.4) and incubated with the following antibodies: polyclonal anti-phospho AMPK (1:1000, Cell Signaling Technology, Danvers, MA, US), polyclonal anti-PGC-1α (1:1000, Santa Cruz Biotechnology Inc, Santa Cruz, CA, USA) and monoclonal anti-ATP synthase β subunit (1:2000 dilution, Mitosciences, Eugene, OR). Extracellular signal-regulated kinase (ERK; 1:2000, Covance, Princeton, NJ, US) was probed as a loading control (previous studies show this protein to not change level of expression in DRG in diabetes). […]

[3] = tested on: AMP-activated protein kinase (AMPK); assay: AMPK expression in DRG of STZ-diabetic mice (Western blot); format: in vivo, mouse; details: daily s.c. injections for 8 weeks, lumbar DRG
Method: as §1, §2

[4] = tested on: STZ-induced diabetic C57Bl6J mice; assay: Reappearance of neuropathy after withdrawal of treatment; format: in vivo, mouse
Excerpt: Only 9 weeks later (the 17-wk time point) was there a significant reappearance of hypoalgesia in the previously treated STZ-induced diabetic mice (FIG. 12).

[5] = tested on: DRG sensory neurons from M1R knockout mice; assay: Neurite outgrowth in sensory neuron cultures from M1R knockout mice; format: cell-based, mouse; details: 1 μM, 24 hr
[6] = tested on: STZ diabetic Sprague Dawley rats; assay: Reversal of thermal hypoalgesia in diabetic rats, subcutaneous; format: in vivo, rat; details: 10 mg/kg daily s.c. from week 12; 20th week, 8 weeks of treatment
Method: One group of adult male Sprague Dawley rats were made diabetic with a single intraperitoneal injection of 75 mg/kg STZ, while a second group of adult male rats were maintained as non-diabetic controls. The two groups of rats were monitored for the onset of […] by assessing thermal latency at 4-wk intervals.

[7] = tested on: STZ-diabetic Swiss Webster mice; assay: Reversal of diabetic sensory neuropathy with oral dosing; format: in vivo, mouse
Method: Male out-bred Swiss Webster mice were made diabetic with 2 injections of 90 mg/kg STZ on consecutive days. […] The mice were maintained for 8 weeks after STZ injections.

[8] = tested on: NDUFS3; assay: NDUFS3 expression in DRG of STZ-diabetic mice (Western blot); format: in vivo, mouse; details: daily injections for 8 weeks
Method: Quantitative Western blotting was performed as described in Example 15. Quantitative Western blotting was performed as previously disclosed by Chowdhury et al (2010) and Fernyhough et al. (1999). DRG homogenates of 5-10 μg of protein were resolved on a 10% SDS-PAGE gel and electroblotted onto nitrocellulose membrane. Blots were then blocked in 5% nonfat milk containing 0.05% Tween-20, rinsed in PBS (pH 7.4) and incubated with the following antibodies: monoclonal anti-cytochrome c oxidase subunit 4 (COX IV; 1:1000, Mitosciences, Eugene, OR, US), monoclonal anti-NADH dehydrogenase (ubiquinone) iron-sulfur protein 3 (NDUFS3, 1:1000, Mitosciences, Eugene, OR, US). Extracellular signal-regulated kinase (T-ERK; 1:2000, Covance, Princeton, NJ, US) was probed as a loading control. The blots were rinsed, incubated in Western blotting Luminol Reagent (Santa Cruz Biotechnology Inc., Santa Cruz, CA, US) and imaged using a BioRad Fluor-S image analyzer (BioRad, Hercules, CA, US).

[9] = control (non-diabetic) mice, 10% hydrogel, treated hindpaw
[10] = diabetic mice, 2% or 10% hydrogel, vs control mice
[11] = daily oral gavage for 8 weeks from week 8

Structure (SMILES): CN1CCN(CC(=O)N2c3ccccc3C(=O)Nc3cccnc32)CC1 [pirenzepine, 11-[2-(4-methylpiperazin-1-yl)acetyl]-5H-pyrido[2,3-b][1,4]benzodiazepin-6-1]
- IENF per mm of skin [1, 9]: numerically, but statistically insignificant, increases
- SNP per mm of skin [1, 9]: numerically, but statistically insignificant, increases
- thermal response latency ([1]; control (non-diabetic) mice, daily topical hydrogel comprising 10% pirenzepine): not affected
- levels of IENF in treated paw [1, 10]: no significant changes
- levels of SNP in treated paw [1, 10]: no significant changes
- thermal response latency in treated paw ([1]; diabetic mice, daily topical 2% or 10% hydrogel, vs control mice): did not demonstrate any significant changes
- expression of PGC-1α [2]: restored the expression
- expression of P-AMPK [3]: restored the expression
- expression of T-AMPK [3]: restored the expression
- thermal hypoalgesia ([4]; 10 mg/kg daily s.c., after 8 weeks): hypoalgesia was prevented
- time after stopping treatment to significant reappearance of hypoalgesia ([4]; treatment stopped at 8 weeks, 17-wk time point): 9 weeks
- neurite outgrowth [5]: did not enhance neurite outgrowth
- thermal latency [6]: dropped to approximate the levels in the non-diabetic control rats
- loss of IENF [7, 11]: reversed loss
- loss of SNP [7, 11]: reversed loss
- thermal hypoalgesia [7, 11]: reversed thermal hypoalgesia
- efficacy of oral formulation ([7]; dissolved in water, administered orally to mice): exhibited efficacy
- expression of NDUFS3 mitochondrial protein [8]: restored the expression
